According to patent publication US7300664B1, “Vaginally administrable progesterone-containing tablets and method for preparing same” (Ferring B.V., priority 1998, dated 2007):
Read-outs that look alike come from different tables or passages of the source.

Tests used:
[1] = Single-dose pharmacokinetics of progesterone vaginal tablets in post-menopausal women (Example 4, day 0); assay type: in vivo; settings: single vaginal tablet, mean; for Tmax / half-life: female, human, serum; for half-life: read-out: T1/2 (mean elimination half-life) (converted); for Cmax: read-out: Cmax (maximal serum concentration)
Experimental: The pharmacokinetics and clinical use of tablets prepared in accordance with the invention were evaluated as follows: 50 healthy, post-menopausal women with intact uteri, 39 of whom had suffered premature menopause and 11 who were truly postmenopausal, all of whom were undergoing hormone replacement therapy (HRT), submitted blood samples for determination of baseline profiles of hormones (progesterone and other hormones) and other biochemicals (bilirubin, cholesterol, etc.). The blood samples were taken at 8 AM on the first day of the evaluation (day 0) in a fasting state, by intravenous indwelling catheter which was introduced into the cubital vein. Non-estrogen primed postmenopausal women were chosen in order to avoid confusion with endogenous progesterone secretion and estrogen influence on vaginal mucosa absorption (Villanueva et al., Fertil. Steril. 35 (1981), 433-437). The women then self-administered the progesterone vaginal tablet using a plastic applicator and lay down for 20 minutes. Repeat blood samples for progesterone concentration were withdrawn 0.5, 1, 2, 4, 6, 8, 10, 12 and 24 hours after the vaginal insertion. Blood was allowed to clot at room temperature for 1 hour, after which the serum was separated by centrifugation and stored at −20° C. until analysis. Of the 50 women who participated in the evaluation, 20 were allocated tablets containing 50 mg progesterone, and the remainder of the participants received tablets containing 100 mg progesterone. […] The mean […] (Tmax), mean elimination half-life (T1/2), maximal serum concentration (Cmax), and AUC (area under the curve, i.e. total amount of plasma progesterone observed) derived from the blood samples taken on day 0 of the evaluation are summarized in Table II.

[2] = Clinical use: twice-daily vaginal tablets, blood samples on days 14 and 30 (Example 4); assay type: in vivo, women; settings: female, human, serum, other: vaginal, fasting morning sample, read-out: Blood Progesterone levels
Experimental: The pharmacokinetics and clinical use of tablets prepared in accordance with the invention were evaluated as follows: 50 healthy, post-menopausal women with intact uteri, 39 of whom had suffered premature menopause and 11 who were truly postmenopausal, all of whom were undergoing hormone replacement therapy (HRT), submitted blood samples for determination of baseline profiles of hormones (progesterone and other hormones) and other biochemicals (bilirubin, cholesterol, etc.). The blood samples were taken at 8 AM on the first day of the evaluation (day 0) in a fasting state, by intravenous indwelling catheter which was introduced into the cubital vein. Non-estrogen primed postmenopausal women were chosen in order to avoid confusion with endogenous progesterone secretion and estrogen influence on vaginal mucosa absorption (Villanueva et al., Fertil. Steril. 35 (1981), 433-437). To evaluate clinical use of the drug, the women were instructed to insert tablets prepared in accordance with the present invention, containing the same dose as administered on day 0, twice daily starting on day 1, and to […] for 20 minutes after each insertion. On days 14 and 30, blood samples for comparison with the baseline were drawn in the morning while the subjects were in a fasting state. Of the 50 women who participated in the evaluation, 20 were allocated tablets containing 50 mg progesterone, and the remainder of the participants received tablets containing 100 mg progesterone.

[3] = 50 mg progesterone, 20 subjects
[4] = 100 mg progesterone, 30 subjects

Tmax [1, 3]: 6.1 h | half-life [1, 3]: 13.2 h | Tmax [1, 4]: 6.4 h | half-life [1, 4]: 13.7 h | AUC (area under the curve) [1, 3]: 154.15 nmol/h/L | Cmax [1, 3]: 20.4 nM | Cmax ([1]; 100 mg progesterone, 30 subjects, P = 0.0004): 31.6 nM | AUC (area under the curve) ([1]; 100 mg progesterone, 30 subjects, P = 0.001): 247.61 nmol/h/L | concentration at 14 day ([2]; 50 mg twice daily, Day 14, 50 mg tablet twice daily, 20 subjects): 17.5 nM | concentration at 30 day ([2]; 50 mg twice daily, Day 30, 50 mg tablet twice daily, 20 subjects): 17.4 nM | concentration at 14 day ([2]; 100 mg twice daily, Day 14, 100 mg tablet twice daily, 30 subjects): 26.1 nM | concentration at 30 day ([2]; 100 mg twice daily, Day 30, 100 mg tablet twice daily, 30 subjects): 21.4 nM
SMILES: CC(=O)[C@H]1CC[C@H]2[C@@H]3CCC4=CC(=O)CC[C@]4(C)[C@H]3CC[C@]12C [Progesterone, progesterone]
